Results taken from PubChem BioAssay AID328 (DTP/NCI, 2004).
Several values for one entry are separate records, joined by “and”; a condition that tells them apart may be missing. Equal entries are not always repeated. Inconclusive results and toxic doses are left out. Rule for the calls: active = survival T/C of 150% or more; inactive = T/C below 125% in these data.

Tested on: BDF1 mice, P388 leukemia ip, median survival T/C
Experiment: NCI In Vivo Anticancer Drug Screen. Data for tumor model P388 Leukemia (intraperitoneal) in B6D2F1 (BDF1) mice
Settings: endpoint: median survival time, higher = longer survival
How it was run: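 Compound-treated tumour-bearing mice were compared with vehicle-treated controls. Survival was recorded, and the value is the treated-group measurement divided by the control-group measurement (T/C).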

[1] = dose: 25.0 mg/kg/injection, schedule: Q01DX009 (ip), vehicle: saline with Tween-80
[2] = dose: 50.0 mg/kg/injection, schedule: Q01DX009 (ip), vehicle: saline with Tween-80
[3] = dose: 100.0 mg/kg/injection, schedule: Q01DX009 (ip), vehicle: saline with Tween-80
[4] = dose: 100.0 mg/kg/injection, schedule: Q04DX003 (ip), vehicle: saline with Tween-80
[5] = dose: 200.0 mg/kg/injection, schedule: Q01DX009 (ip), vehicle: saline with Tween-80
[6] = dose: 200.0 mg/kg/injection, schedule: Q04DX003 (ip), vehicle: saline with Tween-80
[7] = dose: 400.0 mg/kg/injection, schedule: Q01DX009 (ip), vehicle: saline with Tween-80
[8] = dose: 400.0 mg/kg/injection, schedule: Q04DX003 (ip), vehicle: saline with Tween-80

Measured: T/C

Clc1nc(Cl)c(Cl)nc1Cl
inactive: [1] 100 % of control | dose: 25.0 mg/kg/injection, schedule: Q04DX003 (ip), vehicle: saline with Tween-80 97 % of control | [2] 97 % of control | dose: 50.0 mg/kg/injection, schedule: Q04DX003 (ip), vehicle: saline with Tween-80 113 % of control | [3] 113 % of control | [4] 108 % of control | [5] 113 % of control | [6] 97 % of control | [7] 106 % of control | [8] 106 % of control

O=C(O)CCCCCNC(=O)OCc1ccccc1
inactive: dose: 100.0 mg/kg/injection, schedule: Q01DX009 (ip), vehicle: gum acacia 112 % of control | dose: 100.0 mg/kg/injection, schedule: Q04DX003 (ip), vehicle: gum acacia 100 % of control | dose: 200.0 mg/kg/injection, schedule: Q01DX009 (ip), vehicle: gum acacia 104 % of control | dose: 200.0 mg/kg/injection, schedule: Q04DX003 (ip), vehicle: gum acacia 100 % of control | dose: 400.0 mg/kg/injection, schedule: Q01DX009 (ip), vehicle: gum acacia 108 % of control | dose: 400.0 mg/kg/injection, schedule: Q04DX003 (ip), vehicle: gum acacia 116 % of control

O=C(O)/C=C/c1ccc(-c2cc(C(F)(F)F)cc(C(F)(F)F)c2)o1
inactive: [2] 108 % of control | [3] 90 % of control | [5] 106 % of control

S=C1N(c2ccccc2)CN(C2CCCCC2)CN1c1ccccc1
inactive: [2] 89 % of control | [3] 90 % of control | [5] 89 % of control

CCN(C(=O)C(F)(F)F)C1(c2ccc(Cl)cc2)CCCCC1SSSC1CCCCC1(c1ccc(Cl)cc1)N(CC)C(=O)C(F)(F)F (stereo unspecified)
inactive: [4] 100 % of control | [6] 100 % of control | [8] 104 % of control

O=C1CN(Cc2ccc(Cl)cc2)CC(=O)N2CCCN12
inactive: dose: 50.0 mg/kg/injection, schedule: Q01DX005 (ip), vehicle: saline with Tween-80 92 % of control

CSCCCNC(=O)c1csc(-c2csc(CCNC(=O)c3ccccc3)n2)n1
inactive: dose: 8.0 mg/kg/injection, schedule: Q01DX009 (ip), vehicle: saline 100 % of control | dose: 16.0 mg/kg/injection, schedule: Q01DX009 (ip), vehicle: saline 100 % of control | dose: 32.0 mg/kg/injection, schedule: Q01DX009 (ip), vehicle: saline 110 % of control | dose: 64.0 mg/kg/injection, schedule: Q01DX009 (ip), vehicle: saline 120 % of control

O=C1NC(=O)c2cc([N+](=O)[O-])cc3cccc1c23
inactive: dose: 100.0 mg/kg/injection, schedule: Q04DX003 (ip), vehicle: saline sonified 91 % of control | dose: 200.0 mg/kg/injection, schedule: Q04DX003 (ip), vehicle: saline sonified 95 % of control | dose: 400.0 mg/kg/injection, schedule: Q04DX003 (ip), vehicle: saline sonified 87 % of control

C1CCC2C(C1)NC1CCCCC12 (stereo unspecified)
inactive: dose: 12.0 mg/kg/injection, schedule: Q04DX003 (ip), vehicle: saline 109 % of control | dose: 12.5 mg/kg/injection, schedule: Q01DX001 (ip), vehicle: saline sonified 100 % of control | dose: 25.0 mg/kg/injection, schedule: Q01DX001 (ip), vehicle: saline sonified 90 % of control | dose: 25.0 mg/kg/injection, schedule: Q01DX009 (ip), vehicle: saline 112 % of control | dose: 25.0 mg/kg/injection, schedule: Q04DX003 (ip), vehicle: saline 95 % of control | dose: 50.0 mg/kg/injection, schedule: Q01DX001 (ip), vehicle: saline sonified 90 % of control | dose: 50.0 mg/kg/injection, schedule: Q01DX009 (ip), vehicle: saline 104 % of control | dose: 50.0 mg/kg/injection, schedule: Q04DX003 (ip), vehicle: saline 109 % of control

O=[N+]([O-])c1ccc2c(c1)c(-c1cc(Cl)cc(Cl)c1)nc1ccccc12
inactive: [1] 108 % of control | [2] 97 % of control | [3] 101 % of control | [4] 99 % of control | [5] 90 % of control | [6] 88 % of control | [7] 99 % of control | [8] 107 % of control

O=C(/C(=C/c1ccccc1)CBr)c1ccccc1
inactive: dose: 1.6 mg/kg/injection, schedule: Q01DX009 (ip), vehicle: Klucel (hydroxypropylcellulose) (HPC) 109 % of control | dose: 3.1 mg/kg/injection, schedule: Q01DX009 (ip), vehicle: Klucel (hydroxypropylcellulose) (HPC) 100 % of control | dose: 6.25 mg/kg/injection, schedule: Q01DX009 (ip), vehicle: Klucel (hydroxypropylcellulose) (HPC) 104 % of control | dose: 12.5 mg/kg/injection, schedule: Q01DX009 (ip), vehicle: Klucel (hydroxypropylcellulose) (HPC) 86 % of control | dose: 12.5 mg/kg/injection, schedule: Q04DX003 (ip), vehicle: Klucel (hydroxypropylcellulose) (HPC) 104 % of control | dose: 25.0 mg/kg/injection, schedule: Q01DX009 (ip), vehicle: Klucel (hydroxypropylcellulose) (HPC) 86 % of control | dose: 25.0 mg/kg/injection, schedule: Q04DX003 (ip), vehicle: Klucel (hydroxypropylcellulose) (HPC) 95 % of control | dose: 50.0 mg/kg/injection, schedule: Q04DX003 (ip), vehicle: Klucel (hydroxypropylcellulose) (HPC) 95 % of control

CCOC/C(C)=C/Cl
inactive: dose: 50.0 mg/kg/injection, schedule: Q01DX009 (ip), vehicle: acetone 104 % of control | dose: 100.0 mg/kg/injection, schedule: Q01DX009 (ip), vehicle: acetone 116 % of control | dose: 200.0 mg/kg/injection, schedule: Q01DX009 (ip), vehicle: acetone 112 % of control

S=c1[nH]nc2n1NC(c1ccccc1)=NN2
inactive: [4] 91 % of control | [6] 87 % of control | [8] 95 % of control

N#CC(O)c1ccccc1 (stereo unspecified)
inactive: dose: 2.5 mg/kg/injection, schedule: Q01DX010 (ip), vehicle: acetone 107 % of control | dose: 5.0 mg/kg/injection, schedule: Q01DX010 (ip), vehicle: acetone 92 % of control | dose: 10.0 mg/kg/injection, schedule: Q01DX010 (ip), vehicle: acetone 92 % of control

COc1cc2c(cc1OC)C1CC(O)(c3nccc4cc(OC)c(OC)cc34)CCN1CC2 (stereo unspecified)
inactive: [2] 91 % of control | [3] 91 % of control | [5] 87 % of control

NC(CSCc1ccccc1)(CSCc1ccccc1)C(=O)O
inactive: dose: 12.5 mg/kg/injection, schedule: Q01DX009 (ip), vehicle: other 103 % of control | dose: 25.0 mg/kg/injection, schedule: Q01DX009 (ip), vehicle: other 122 % of control | dose: 50.0 mg/kg/injection, schedule: Q01DX009 (ip), vehicle: other 97 % of control and 110 % of control | dose: 100.0 mg/kg/injection, schedule: Q01DX009 (ip), vehicle: other 117 % of control | dose: 200.0 mg/kg/injection, schedule: Q01DX009 (ip), vehicle: other 96 % of control | dose: 400.0 mg/kg/injection, schedule: Q01DX009 (ip), vehicle: other 94 % of control

CS(=O)(=O)OCCCl
inactive: dose: 18.8 mg/kg/injection, schedule: Q01DX010 (ip), vehicle: saline 105 % of control and 120 % of control | dose: 37.5 mg/kg/injection, schedule: Q01DX010 (ip), vehicle: saline 100 % of control and 110 % of control | dose: 75.0 mg/kg/injection, schedule: Q01DX010 (ip), vehicle: saline 100 % of control

O=C(O)CC(NC(=O)OCc1ccccc1)C(=O)OCc1ccccc1 (stereo unspecified)
inactive: [2] 92 % of control | [3] 111 % of control | [4] 104 % of control | [5] 111 % of control | [6] 113 % of control | [7] 100 % of control | [8] 90 % of control

COc1cc2cc(c1Cl)NC(=O)/C=C/[C@]1(C)O[C@H]1[C@H](C)[C@@H]1C[C@@](O)(NC(=O)O1)[C@H](OC)C=C/C=C(\C)C2
inactive: dose: 0.2 micrograms/kg/injection, schedule: Q01DX009 (ip), vehicle: saline + alcohol 100 % of control | dose: 0.4 micrograms/kg/injection, schedule: Q01DX009 (ip), vehicle: saline + alcohol 100 % of control | dose: 0.8 micrograms/kg/injection, schedule: Q01DX009 (ip), vehicle: saline + alcohol 90 % of control | dose: 1.6 micrograms/kg/injection, schedule: Q01DX009 (ip), vehicle: saline + alcohol 100 % of control | dose: 3.1 micrograms/kg/injection, schedule: Q01DX009 (ip), vehicle: saline + alcohol 115 % of control | dose: 6.2 micrograms/kg/injection, schedule: Q01DX009 (ip), vehicle: saline + alcohol 115 % of control | dose: 12.5 micrograms/kg/injection, schedule: Q01DX009 (ip), vehicle: saline + alcohol 87 % of control and 110 % of control | dose: 25.0 micrograms/kg/injection, schedule: Q01DX009 (ip), vehicle: saline + alcohol 87 % of control and 110 % of control | dose: 50.0 micrograms/kg/injection, schedule: Q01DX009 (ip), vehicle: saline + alcohol 91 % of control and 110 % of control | dose: 100.0 micrograms/kg/injection, schedule: Q01DX009 (ip), vehicle: saline + alcohol 91 % of control and 95 % of control

CN(C)[C@@H]1C(=O)C(C(=O)NCNCCCC(=O)O)=C(O)[C@@]2(O)C(=O)C3=C(O)c4c(O)cccc4[C@@](C)(O)[C@H]3C[C@@H]12
inactive: [3] 95 % of control | [5] 104 % of control | [7] 104 % of control

Cc1cnc(O[Si](C)(C)C)nc1O[Si](C)(C)C
inactive: [3] 100 % of control | [5] 91 % of control | [7] 116 % of control
